The values that follow come from ChEMBL document CHEMBL1201862, “PubChem BioAssay data set” (2004).

In general, IC50 refers to the concentration at which inhibition is half-maximal. Broadly, the EC50 is the concentration at which the effect is half-maximal. One may read the AC50 as the concentration at which the activity in the assay is half-maximal.

The source made the active and inactive calls.

Experiment [1] has as its target T1, Runt-related transcription factor 1/Core-binding factor subunit beta (Homo sapiens, UniProt Q01196+Q13951). The experiment is described as follows: inhibitors of RUNX1 Runt–CBFb-SMMHC binding, primary screen, biochemical, FRET, Cerulean-Runt, Venus-CBFb-SMMHC, uHTS (AID 1434).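 Further: partner is the CBFb-SMMHC leukemia fusion protein rather than wild-type CBFb.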 Type of experiment: protein assay.
The target of experiment [2] is T1, Runt-related transcription factor 1/Core-binding factor subunit beta. In words: inhibitors of RUNX1 Runt–CBFb-SMMHC binding, biochemical, TR-FRET (AID 1438). It counts as protein assay. (In general: In TR-FRET formats the signal depends on donor and acceptor labels being close together.)
Experiment [3] concerns the target T2, Bcl-2-related protein A1 (Mus musculus, UniProt Q07440).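 Further: confirmatory dose–response counterscreen on Bfl-1, used to check hits from a UBC13 polyubiquitin inhibitor campaign.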
T2 sequence (Q07440 whole entry): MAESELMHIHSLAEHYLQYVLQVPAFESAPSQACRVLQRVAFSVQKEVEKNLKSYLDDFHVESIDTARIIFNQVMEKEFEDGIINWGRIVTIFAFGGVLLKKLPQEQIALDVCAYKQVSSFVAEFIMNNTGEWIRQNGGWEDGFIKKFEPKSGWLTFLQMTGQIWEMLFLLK
It counts as functional.

Experiment [4] concerns the target T3, Ubiquitin-conjugating enzyme E2 N (Homo sapiens, UniProt P61088).
T3 sequence (P61088 whole entry): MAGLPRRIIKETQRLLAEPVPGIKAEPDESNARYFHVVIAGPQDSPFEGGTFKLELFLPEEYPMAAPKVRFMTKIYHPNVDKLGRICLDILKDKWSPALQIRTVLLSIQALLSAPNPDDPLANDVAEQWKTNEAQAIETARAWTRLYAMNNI
Type of experiment: functional.

In experiment [5] the target is T3, Ubiquitin-conjugating enzyme E2 N. It counts as functional. The source holds these as a separate data set.
Experiment [6] addresses T4, Apoptotic protease-activating factor 1 (Homo sapiens, UniProt O14727).
T4 sequence (O14727 whole entry): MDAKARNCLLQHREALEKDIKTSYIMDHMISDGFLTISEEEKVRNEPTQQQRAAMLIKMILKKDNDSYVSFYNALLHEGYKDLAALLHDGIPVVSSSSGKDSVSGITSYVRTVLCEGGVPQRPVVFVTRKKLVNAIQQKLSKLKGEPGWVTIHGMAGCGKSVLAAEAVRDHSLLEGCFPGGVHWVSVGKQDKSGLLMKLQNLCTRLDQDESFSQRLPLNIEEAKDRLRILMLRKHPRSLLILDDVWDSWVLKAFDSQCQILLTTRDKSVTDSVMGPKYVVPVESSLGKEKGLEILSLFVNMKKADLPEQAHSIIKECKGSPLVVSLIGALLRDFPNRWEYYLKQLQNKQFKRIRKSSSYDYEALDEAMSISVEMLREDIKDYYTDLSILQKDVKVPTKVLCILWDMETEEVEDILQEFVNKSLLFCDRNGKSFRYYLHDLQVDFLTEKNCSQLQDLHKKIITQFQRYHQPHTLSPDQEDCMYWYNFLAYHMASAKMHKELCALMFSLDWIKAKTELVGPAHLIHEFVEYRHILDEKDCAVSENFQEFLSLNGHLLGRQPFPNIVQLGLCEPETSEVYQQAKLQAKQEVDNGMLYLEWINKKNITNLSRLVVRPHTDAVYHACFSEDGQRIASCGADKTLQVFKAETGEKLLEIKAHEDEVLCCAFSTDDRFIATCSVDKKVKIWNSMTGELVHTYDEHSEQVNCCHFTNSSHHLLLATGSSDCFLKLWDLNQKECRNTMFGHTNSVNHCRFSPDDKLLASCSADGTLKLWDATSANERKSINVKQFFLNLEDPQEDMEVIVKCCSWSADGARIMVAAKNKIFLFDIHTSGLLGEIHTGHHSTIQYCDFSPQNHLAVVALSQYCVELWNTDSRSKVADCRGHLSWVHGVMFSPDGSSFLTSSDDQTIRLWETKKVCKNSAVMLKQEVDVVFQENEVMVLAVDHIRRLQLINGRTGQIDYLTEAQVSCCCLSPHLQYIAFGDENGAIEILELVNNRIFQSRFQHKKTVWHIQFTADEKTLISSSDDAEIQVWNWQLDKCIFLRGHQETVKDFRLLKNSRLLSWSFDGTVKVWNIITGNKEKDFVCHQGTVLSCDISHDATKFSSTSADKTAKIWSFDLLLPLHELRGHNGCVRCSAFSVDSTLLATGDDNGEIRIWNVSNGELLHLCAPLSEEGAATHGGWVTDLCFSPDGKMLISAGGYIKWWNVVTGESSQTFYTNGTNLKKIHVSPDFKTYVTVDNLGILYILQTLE
It counts as functional.

Experiment [7] has as its target Melanocortin receptor 4 (Homo sapiens, UniProt P32245). It counts as functional, cell-based.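 Further: Cell-based assay with luminescence read-out, confirmatory dose-response testing for agonist activity of biased ligands at MC4R; human U2OS cells with tagged receptor and beta-arrestin; potency of agonists that increase receptor coupling to beta-arrestin.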
The nature of experiment [8]: MDA-MB-231 cell growth inhibition, dose response, cytotoxicity control for RAD54 inhibitor project, CellTiter-Glo luminescence, cherry-pick (AID 651692). Type of experiment: functional, cell-based. Background: In ATP-based viability assays light output follows the ATP content of the culture.
Experiment [9] addresses DNA repair and recombination protein RAD54-like (Homo sapiens, UniProt Q92698). The experiment is described as follows: inhibitors of human RAD54 branch migration, confirmation, biochemical, fluorescence, cherry-picked samples, dose series (AID 651657). Type of experiment: functional.
Experiment [10] addresses G-protein coupled receptor 55 (Homo sapiens, UniProt Q9Y2T6). In words: GPR55 agonists via beta-arrestin recruitment, primary screen, imaging, U2OS cells, beta-arrestin-GFP redistribution (AID 1961). Type of experiment: functional. In general terms: Activated receptors often draw arrestin, which recruitment assays turn into a signal.
Experiment [11] deals with Glucose-6-phosphate 1-dehydrogenase (Homo sapiens, UniProt P11413). The experiment is described as follows: human G6PD enzyme inhibitors, dose response, selectivity assay for P. falciparum G6PD inhibitor project, biochemical, fluorescence (AID 504792). Type of experiment: functional.
Glucose-6-phosphate 1-dehydrogenase, sequence (P11413 whole entry): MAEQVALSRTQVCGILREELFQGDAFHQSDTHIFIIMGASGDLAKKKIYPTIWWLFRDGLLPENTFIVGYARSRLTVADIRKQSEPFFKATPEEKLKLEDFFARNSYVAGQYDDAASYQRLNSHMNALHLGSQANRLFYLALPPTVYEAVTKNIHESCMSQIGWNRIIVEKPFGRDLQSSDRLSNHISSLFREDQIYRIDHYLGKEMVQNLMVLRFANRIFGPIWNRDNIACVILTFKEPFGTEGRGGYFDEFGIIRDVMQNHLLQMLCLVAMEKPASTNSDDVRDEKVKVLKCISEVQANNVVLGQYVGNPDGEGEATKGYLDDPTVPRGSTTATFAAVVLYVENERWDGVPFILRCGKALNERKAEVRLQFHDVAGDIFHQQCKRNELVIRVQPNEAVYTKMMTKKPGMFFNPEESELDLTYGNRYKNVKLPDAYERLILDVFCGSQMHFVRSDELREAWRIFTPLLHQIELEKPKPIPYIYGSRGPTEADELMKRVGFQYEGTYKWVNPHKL
In experiment [12] the target is Trypsin (Sus scrofa, UniProt P00761). The experiment is described as follows: porcine trypsin inhibitors, dose response, selectivity assay for Rce1 protease inhibitor project, biochemical, quenched peptide fluorescence, cherry-pick (AID 488789).
Trypsin, sequence (P00761 whole entry): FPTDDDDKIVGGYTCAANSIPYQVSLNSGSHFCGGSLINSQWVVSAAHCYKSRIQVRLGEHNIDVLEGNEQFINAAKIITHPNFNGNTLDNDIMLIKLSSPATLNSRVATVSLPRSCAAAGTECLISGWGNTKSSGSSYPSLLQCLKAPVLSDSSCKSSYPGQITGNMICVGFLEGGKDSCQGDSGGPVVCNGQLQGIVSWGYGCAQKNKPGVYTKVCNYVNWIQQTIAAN
For experiment [13], the target named is T5, CAAX prenyl protease 2 (Saccharomyces cerevisiae S288c, UniProt Q03530).
T5 sequence (Q03530 whole entry): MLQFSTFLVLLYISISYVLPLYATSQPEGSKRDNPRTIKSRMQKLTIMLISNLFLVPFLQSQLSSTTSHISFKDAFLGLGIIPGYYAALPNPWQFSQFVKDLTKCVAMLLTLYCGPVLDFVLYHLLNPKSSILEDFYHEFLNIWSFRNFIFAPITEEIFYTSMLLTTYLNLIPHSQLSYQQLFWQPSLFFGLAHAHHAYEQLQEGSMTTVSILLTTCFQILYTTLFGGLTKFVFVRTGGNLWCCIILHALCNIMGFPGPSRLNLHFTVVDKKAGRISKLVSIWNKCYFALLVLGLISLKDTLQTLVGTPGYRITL
Type of experiment: biochemical.

Experiment [14] is described as follows: mammalian cell cytotoxicity, dose response, cytotoxicity control, plate reader, cherry-pick samples (AID 504397). It counts as functional, cell-based.

T1 sequence (Q01196 whole entry, the tested form may be a part): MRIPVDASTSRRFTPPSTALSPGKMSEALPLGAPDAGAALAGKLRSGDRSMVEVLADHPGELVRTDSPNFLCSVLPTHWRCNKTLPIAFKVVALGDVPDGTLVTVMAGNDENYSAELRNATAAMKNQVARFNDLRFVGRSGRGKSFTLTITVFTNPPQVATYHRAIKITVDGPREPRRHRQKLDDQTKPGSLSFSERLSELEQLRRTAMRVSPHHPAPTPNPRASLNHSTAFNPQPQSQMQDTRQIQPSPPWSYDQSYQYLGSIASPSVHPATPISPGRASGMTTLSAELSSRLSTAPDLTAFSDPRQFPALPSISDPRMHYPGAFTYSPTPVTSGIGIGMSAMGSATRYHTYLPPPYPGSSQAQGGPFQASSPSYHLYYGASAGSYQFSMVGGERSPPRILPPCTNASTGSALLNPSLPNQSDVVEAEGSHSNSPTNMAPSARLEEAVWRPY
T1 sequence (Q13951 whole entry, the tested form may be a part): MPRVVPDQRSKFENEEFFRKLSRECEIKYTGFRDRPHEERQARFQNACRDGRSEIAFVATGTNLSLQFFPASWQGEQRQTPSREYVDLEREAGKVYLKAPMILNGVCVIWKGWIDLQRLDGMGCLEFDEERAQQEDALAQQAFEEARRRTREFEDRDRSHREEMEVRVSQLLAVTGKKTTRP
G-protein coupled receptor 55, sequence (Q9Y2T6 whole entry): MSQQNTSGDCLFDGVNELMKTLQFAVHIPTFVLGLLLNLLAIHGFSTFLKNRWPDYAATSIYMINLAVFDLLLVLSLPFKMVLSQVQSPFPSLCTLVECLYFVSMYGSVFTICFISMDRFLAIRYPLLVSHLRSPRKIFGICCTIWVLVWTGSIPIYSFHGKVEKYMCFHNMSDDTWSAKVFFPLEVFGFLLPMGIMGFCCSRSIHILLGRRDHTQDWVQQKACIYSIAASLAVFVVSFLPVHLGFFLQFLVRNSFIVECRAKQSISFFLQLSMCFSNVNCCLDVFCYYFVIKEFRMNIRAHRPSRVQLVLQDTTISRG
DNA repair and recombination protein RAD54-like, sequence (Q92698 whole entry): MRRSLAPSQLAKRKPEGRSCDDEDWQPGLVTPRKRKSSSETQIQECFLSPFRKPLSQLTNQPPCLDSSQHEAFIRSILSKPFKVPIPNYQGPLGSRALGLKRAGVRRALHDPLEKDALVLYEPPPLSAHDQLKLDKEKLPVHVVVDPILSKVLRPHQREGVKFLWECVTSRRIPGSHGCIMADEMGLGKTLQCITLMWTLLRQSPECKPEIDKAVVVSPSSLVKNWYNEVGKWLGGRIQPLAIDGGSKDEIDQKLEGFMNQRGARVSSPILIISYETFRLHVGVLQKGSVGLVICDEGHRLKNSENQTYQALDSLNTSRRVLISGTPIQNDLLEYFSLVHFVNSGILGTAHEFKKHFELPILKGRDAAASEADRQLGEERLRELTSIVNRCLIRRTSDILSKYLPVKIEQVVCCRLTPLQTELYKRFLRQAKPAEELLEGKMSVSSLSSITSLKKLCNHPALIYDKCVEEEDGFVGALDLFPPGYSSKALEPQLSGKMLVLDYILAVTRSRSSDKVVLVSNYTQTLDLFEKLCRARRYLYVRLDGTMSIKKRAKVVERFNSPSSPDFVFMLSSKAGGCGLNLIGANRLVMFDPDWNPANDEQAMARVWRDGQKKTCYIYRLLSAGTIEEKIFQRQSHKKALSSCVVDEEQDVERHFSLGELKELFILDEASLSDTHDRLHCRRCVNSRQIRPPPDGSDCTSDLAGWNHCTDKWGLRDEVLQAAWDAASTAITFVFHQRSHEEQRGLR
Melanocortin receptor 4, sequence (P32245 whole entry): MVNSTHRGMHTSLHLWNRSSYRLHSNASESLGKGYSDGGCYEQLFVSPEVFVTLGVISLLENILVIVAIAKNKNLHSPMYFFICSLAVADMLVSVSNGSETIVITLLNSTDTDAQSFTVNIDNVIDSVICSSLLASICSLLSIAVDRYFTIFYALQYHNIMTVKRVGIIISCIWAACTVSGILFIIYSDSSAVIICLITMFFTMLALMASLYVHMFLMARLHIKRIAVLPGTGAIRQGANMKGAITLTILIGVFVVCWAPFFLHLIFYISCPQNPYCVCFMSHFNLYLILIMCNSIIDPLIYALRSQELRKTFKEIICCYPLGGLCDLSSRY

Consider `Cc1ccc(CNC(=O)NCc2ccccc2)cc1`, for which the IC50 in experiment [1] and in experiment [2] was > 100 µM (inactive) throughout.
Turning to `Cc1ccc(-c2csc3nc4c5ccccc5c(NCCCN(C)C)nn4c(=O)c23)cc1`, the IC50 is > 20 µM (inactive) in experiment [3], 13.7 µM (active) in experiment [4], 3.7 µM (active) in experiment [5] and 40 µM (active) in experiment [6]. For the same compound, the EC50 in experiment [7] was > 89.2 µM (inactive). The AC50 was 13.6 µM (active) in experiment [8] and 13.3 µM (active) in experiment [9].
Turning to `Cc1cc(NC(=O)c2oc3ccccc3c2C)ccc1-n1cnnn1`, the EC50 in experiment [10] was 2.68 µM (active). Further, the IC50 in experiment [11] is > 80 µM (inactive). The AC50 in experiment [12] is > 100 µM (inactive); in [13] it was 0.558 µM (active); in experiment [14] it was > 350 µM (inactive).
